Reference: patent publication US7468384B2, “Microbicidal composition” (Rohm and Haas Company, priority 2004, dated 2008)

Experiments:
Format in all cases: cell-based
[1] = system: Candida albicans (C. albicans—ATCC 10231); assay: Synergy test, microtiter plate high resolution MIC assay, yeast; settings: C. albicans 10231, PDB, 24 hours
Excerpt: (§1) One measure of synergism is the industrially accepted method described by Kull, F. C.; Eisman, P. C.; Sylwestrowicz, H. D. and Mayer, R. L., in Applied Microbiology 9:538-541 (1961), using the ratio determined by the formula: Qa/QA+Qb/QB=Synergy Index (“SI”) wherein: • QA=concentration of compound A (first component) in ppm, acting alone, which produced an end point (MIC of Compound A). • Qa=concentration of compound A in ppm, in the mixture, which produced an end point. • QB=concentration of compound B (second component) in ppm, acting alone, which produced an end point (MIC of Compound B). • Qb=concentration of compound B in ppm, in the mixture, which produced an end point.
(§2) When the sum of Qa/QA and Qb/QB is greater than one, antagonism is indicated. […] The lower the SI, the greater the synergy shown by that particular mixture. The minimum inhibitory concentration (MIC) of a microbicide is the lowest concentration tested under a specific set of conditions that prevents the growth of added microorganisms.
(§3) Synergy tests were conducted using standard microtiter plate assays with media designed for optimal growth of the test microorganism. Soybean Casein Digest Broth (Tryptic Soy Broth, TSB medium) or minimal salt medium supplemented with 0.2% glucose and 0.1% yeast extract (M9GY medium) was used for testing bacteria; Potato Dextrose Broth (PDB medium) was used for testing yeast and mold. In this method, a wide range of combinations of microbicides was tested by conducting high resolution MIC assays in the presence of various concentrations of MI. High resolution MICs were determined by adding varying amounts of microbicide to one column of a microtitre plate and doing subsequent ten-fold dilutions using an automated liquid handling system to obtain a series of endpoints ranging from 2 ppm to 10,000 ppm active ingredient.
(§4) For MI combinations, the synergy of the combinations of the present invention was determined against two bacteria, Escherichia coli (E. coli—ATCC #8739) or Pseudomonas aeruginosa (P. aeruginosa—ATCC #15442), a yeast, Candida albicans (C. albicans—ATCC 10231), and a mold, Aspergillus niger (A. niger—ATCC 16404). The bacteria were used at a concentration of about 5×10^6 bacteria per mL and the yeast and mold at 5×10^5 fungi per mL. These microorganisms are representative of natural contaminants in many consumer and industrial applications. […] (bacteria).
(§5) For BIT combinations, the synergy of the combinations of the present invention was determined against a bacterium, Pseudomonas aeruginosa (P. aeruginosa—ATCC #15442), a yeast, Candida albicans (C. albicans—ATCC 10231), and a mold, Aspergillus niger (A. niger—ATCC 16404). The bacteria were used at a concentration of about 5×10^6 bacteria per mL and the yeast and mold at 5×10^5 fungi per mL. These microorganisms are representative of natural contaminants in many consumer and industrial applications. […] (yeast and mold) or 30° C. (bacteria).

[2] = system: Pseudomonas aeruginosa (P. aeruginosa—ATCC #15442); assay: Synergy test, microtiter plate high resolution MIC assay, bacterium; set-up: key to SI (calculated synergy index) / SI (synergy index): SI = Qa/QA + Qb/QB (mixture vs. alone end-point concentrations); settings: for SI (calculated synergy index) / Qb: end-point activity (MIC) of second component in the mixture (alone, QB, where Qa = 0): Table 5; for Qb: end-point activity (MIC) of second component in the mixture (alone, QB, where Qa = 0): B = Linoleamidopropyl PG-dimonium chloride phosphate
Excerpt: as §1, §2, §3, §4, §5

[3] = system: S. aureus 6538; assay: as above; settings: S. aureus 6538, TSB, 48 hours
Excerpt: as §1, §2, §3

[4] = system: Aspergillus niger (A. niger—ATCC 16404); assay: Synergy test, microtiter plate high resolution MIC assay, mold; set-up: key to SI (calculated synergy index) / SI (synergy index): SI = Qa/QA + Qb/QB (mixture vs. alone end-point concentrations); settings: A. niger 16404, PDB
Excerpt: as §1, §2, §3, §4, §5

[5] = system: Escherichia coli (E. coli—ATCC #8739); assay: Synergy test, microtiter plate high resolution MIC assay, bacterium; settings: E. coli 8739, M9GY, 24 hours
Excerpt: as §1, §2
as §3, with “In this method, a wide range of combinations of microbicides was tested by conducting high resolution MIC assays in the presence of various concentrations of MI.” left out
as §4

[6] = P. aeruginosa 15442, M9GY, 48 hours
[7] = P. aeruginosa 15442, TSB, 48 hours
[8] = Table 5, B = Linoleamidopropyl PG-dimonium chloride phosphate

Compound: OCC(O)COc1ccc(Cl)cc1 (stereo not drawn) [Chlorphenesin]
- MIC of component acting alone (QA / QB) [1]: 2000 ppm
- MIC of component acting alone (QA / QB) [2, 6]: 4000 ppm
- MIC of component acting alone (QA / QB) [2, 7]: 8000 ppm
- Qb ([2]; chlorphenesin concentration giving end point (MIC), alone or mixed with BIT, P. aeruginosa 15442, M9GY, 72 hours): 8000 ppm
- SI ([2]; synergy index BIT + chlorphenesin, P. aeruginosa 15442, M9GY, 72 hours): 1.00
- MIC of component acting alone (QA / QB) [3]: 5000 ppm
- MIC of component acting alone (QA / QB) ([4]; 4 days): 2000 ppm
- Qb ([4]; chlorphenesin concentration giving end point (MIC), alone or mixed with BIT, 1 week): 2000 ppm
- SI ([4]; synergy index BIT + chlorphenesin, 1 week): 1.00
- MIC of component acting alone (QA / QB) [5]: 2000 ppm

Compound: Linoleamidopropyl PG-dimonium chloride phosphate
- SI (calculated synergy index) ([1]; Table 5): 1.00
- Qb: end-point activity (MIC) of second component in the mixture (alone, QB, where Qa = 0) [1, 8]: 8000 ppm
- SI (calculated synergy index) [2, 6]: 1.00
- Qb: end-point activity (MIC) of second component in the mixture (alone, QB, where Qa = 0) [2, 6]: 10000 ppm
- SI (calculated synergy index) [2, 7]: 1.00
- Qb: end-point activity (MIC) of second component in the mixture (alone, QB, where Qa = 0) [2, 7]: 10000 ppm
- Qb (second component at end point, MIC) ([2]; Table 21, Linoleamidopropyl PG-dimonium chloride phosphate with BIT, P. aeruginosa 15442, M9GY, 48 hours, alone where Qa = 0): 10000 ppm
- SI (synergy index) ([2]; Table 21, P. aeruginosa 15442, M9GY, 48 hours): 1.00
- SI (calculated synergy index) ([3]; Table 5): 1.00
- Qb: end-point activity (MIC) of second component in the mixture (alone, QB, where Qa = 0) [3, 8]: 40 ppm
- SI (calculated synergy index) ([4]; Table 5, 7 days): 1.00
- Qb: end-point activity (MIC) of second component in the mixture (alone, QB, where Qa = 0) ([4]; Table 5, 7 days, B = Linoleamidopropyl PG-dimonium chloride phosphate): 6000 ppm
- SI (synergy index) ([4]; Table 21, 4 days): 1.00
- Qb (second component at end point, MIC) ([4]; Table 21, Linoleamidopropyl PG-dimonium chloride phosphate with BIT, 4 days, alone where Qa = 0): 3000 ppm
